“And” between values parts separate entries of the source, which are not always exact repeats. Identical values can stand only once. Toxic doses and inconclusive results are not listed. How the source made its calls: active means survival T/C of 150% or more; inactive means T/C below 125% in these data.
System: CD2F1 mice, L1210 leukemia ip, survival T/C
Test: NCI In Vivo Anticancer Drug Screen. Data for tumor model L1210 Leukemia (intraperitoneal) in CD2F1 (CDF1) mice
Settings: higher = longer survival
Outline: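 Transplantable tumor in mice; compound-treated vs vehicle-treated groups. Read-out = treated/control ratio of the measured endpoint.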

[1] = endpoint: mean survival time, dose: 25.0 mg/kg/injection, schedule: Q04DX003 (ip), vehicle: saline with Tween-80
[2] = endpoint: mean survival time, dose: 100.0 mg/kg/injection, schedule: Q01DX009 (ip), vehicle: saline with Tween-80
[3] = endpoint: mean survival time, dose: 200.0 mg/kg/injection, schedule: Q01DX009 (ip), vehicle: saline with Tween-80
[4] = endpoint: mean survival time, dose: 400.0 mg/kg/injection, schedule: Q01DX009 (ip), vehicle: saline with Tween-80
[5] = endpoint: mean survival time, dose: 100.0 mg/kg/injection, schedule: Q04DX003 (ip), vehicle: saline with Tween-80
[6] = endpoint: mean survival time, dose: 200.0 mg/kg/injection, schedule: Q04DX003 (ip), vehicle: saline with Tween-80
[7] = endpoint: mean survival time, dose: 400.0 mg/kg/injection, schedule: Q04DX003 (ip), vehicle: saline with Tween-80
[8] = endpoint: mean survival time, dose: 100.0 mg/kg/injection, schedule: Q01DX009 (ip), vehicle: saline
[9] = endpoint: mean survival time, dose: 200.0 mg/kg/injection, schedule: Q01DX009 (ip), vehicle: saline
[10] = endpoint: mean survival time, dose: 50.0 mg/kg/injection, schedule: Q01DX009 (ip), vehicle: saline with Tween-80
[11] = endpoint: mean survival time, dose: 12.5 mg/kg/injection, schedule: Q01DX009 (ip), vehicle: saline
[12] = endpoint: mean survival time, dose: 25.0 mg/kg/injection, schedule: Q01DX009 (ip), vehicle: saline
[13] = endpoint: mean survival time, dose: 50.0 mg/kg/injection, schedule: Q01DX009 (ip), vehicle: saline
[14] = endpoint: mean survival time, dose: 100.0 mg/kg/injection, schedule: Q04DX003 (ip), vehicle: saline
[15] = endpoint: mean survival time, dose: 200.0 mg/kg/injection, schedule: Q04DX003 (ip), vehicle: saline
[16] = endpoint: mean survival time, dose: 100.0 mg/kg/injection, schedule: Q04DX002 (ip), vehicle: other
[17] = endpoint: mean survival time, dose: 200.0 mg/kg/injection, schedule: Q04DX002 (ip), vehicle: other
[18] = endpoint: mean survival time, dose: 400.0 mg/kg/injection, schedule: Q04DX002 (ip), vehicle: other

Measured: T/C

O=c1cn[nH]c(=O)[nH]1
inactive: endpoint: median survival time, dose: 62.5 mg/kg/injection, schedule: Q01DX009 (ip), vehicle: saline 94 % of control and 100 % of control | endpoint: median survival time, dose: 125.0 mg/kg/injection, schedule: Q01DX009 (ip), vehicle: saline 100 % of control | endpoint: median survival time, dose: 250.0 mg/kg/injection, schedule: Q01DX009 (ip), vehicle: saline 122 % of control and 100 % of control | endpoint: median survival time, dose: 500.0 mg/kg/injection, schedule: Q01DX009 (ip), vehicle: saline 111 % of control and 112 % of control

O=P(O)(CCCCl)c1ccccc1
inactive: endpoint: mean survival time, dose: 25.0 mg/kg/injection, schedule: Q04DX002 (ip), vehicle: saline with Tween-80 95 % of control | endpoint: mean survival time, dose: 50.0 mg/kg/injection, schedule: Q04DX002 (ip), vehicle: saline with Tween-80 91 % of control | endpoint: mean survival time, dose: 100.0 mg/kg/injection, schedule: Q04DX002 (ip), vehicle: saline with Tween-80 98 % of control | endpoint: mean survival time, dose: 200.0 mg/kg/injection, schedule: Q04DX002 (ip), vehicle: saline with Tween-80 91 % of control

CC([NH-])CC(C)[NH-].[Cl][Pt+2][Cl] (centres undefined)
active: endpoint: mean survival time, dose: 6.25 mg/kg/injection, schedule: Q04DX003 (ip), vehicle: saline with Tween-80 162 % of control and 168 % of control
inactive: endpoint: mean survival time, dose: 3.12 mg/kg/injection, schedule: Q04DX003 (ip), vehicle: saline with Tween-80 122 % of control | [1] 92 % of control

CCOC(=O)Nc1cnc2nc[nH]c2c1N(C)C
inactive: endpoint: mean survival time, dose: 100.0 mg/kg/injection, schedule: Q01DX001 (ip), vehicle: carboxymethylcellulose (CMC) 104 % of control | endpoint: mean survival time, dose: 200.0 mg/kg/injection, schedule: Q01DX001 (ip), vehicle: carboxymethylcellulose (CMC) 104 % of control | endpoint: mean survival time, dose: 400.0 mg/kg/injection, schedule: Q01DX001 (ip), vehicle: carboxymethylcellulose (CMC) 124 % of control

CC(=O)c1c(C(C)C)cc(C(C)C)cc1C(C)C
inactive: [2] 98 % of control | [3] 101 % of control | [4] 101 % of control

CN(C)Cc1cc(C(C)(C)C)cc(C2CCCCC2)c1O
inactive: [5] 100 % of control | [6] 100 % of control | [7] 103 % of control

O=c1[nH]c2ccc(Br)cc2c(=O)o1
inactive: [8] 104 % of control | [9] 116 % of control | endpoint: mean survival time, dose: 400.0 mg/kg/injection, schedule: Q01DX009 (ip), vehicle: saline 108 % of control

Nc1cc(Cl)c(Cl)cc1Cl
inactive: [10] 93 % of control | [2] 106 % of control | [5] 100 % of control | [3] 95 % of control | [6] 94 % of control | [4] 108 % of control

CNC(=O)Oc1cccn(C(=O)NC)c1=O
inactive: [11] 98 % of control and 101 % of control | [12] 103 % of control and 107 % of control | [13] 107 % of control and 109 % of control | endpoint: mean survival time, dose: 75.0 mg/kg/injection, schedule: Q01DX009 (ip), vehicle: Klucel (hydroxypropylcellulose) (HPC) 112 % of control | endpoint: mean survival time, dose: 75.0 mg/kg/injection, schedule: Q01DX009 (ip), vehicle: saline 104 % of control and 109 % of control and 112 % of control | [8] 115 % of control | endpoint: mean survival time, dose: 150.0 mg/kg/injection, schedule: Q01DX009 (ip), vehicle: saline 113 % of control and 110 % of control

CC(C)(C[NH-])C[NH-].O=C(O)CC(=O)O.[Pt+2]
inactive: endpoint: median survival time, dose: 0.78 mg/kg/injection, schedule: Q04DX003 (ip), vehicle: water 116 % of control | endpoint: median survival time, dose: 1.56 mg/kg/injection, schedule: Q04DX003 (ip), vehicle: water 113 % of control | endpoint: median survival time, dose: 3.12 mg/kg/injection, schedule: Q04DX003 (ip), vehicle: water 112 % of control | endpoint: median survival time, dose: 3.13 mg/kg/injection, schedule: Q04DX003 (ip), vehicle: distilled water + Tween-80 123 % of control | endpoint: median survival time, dose: 12.5 mg/kg/injection, schedule: Q04DX003 (ip), vehicle: distilled water + Tween-80 116 % of control | endpoint: median survival time, dose: 12.5 mg/kg/injection, schedule: Q04DX003 (ip), vehicle: water 112 % of control | endpoint: median survival time, dose: 25.0 mg/kg/injection, schedule: Q04DX003 (ip), vehicle: distilled water + Tween-80 98 % of control

CC(=O)Nc1nnc(SCc2ccccc2)s1
inactive: [2] 100 % of control | [5] 92 % of control | [3] 96 % of control | [6] 89 % of control | [4] 100 % of control | [7] 89 % of control

COC(=O)CCC(=O)c1ccccc1C
inactive: endpoint: mean survival time, dose: 100.0 mg/kg/injection, schedule: Q04DX003 (ip), vehicle: acetone 100 % of control | endpoint: mean survival time, dose: 200.0 mg/kg/injection, schedule: Q04DX003 (ip), vehicle: acetone 100 % of control

Cc1ccc(N)cc1 (tested in a mixture with another compound)
inactive: endpoint: mean survival time, dose: 12.5 mg/kg/injection, schedule: Q04DX003 (ip), vehicle: saline with Tween-80 97 % of control | [1] 101 % of control and 103 % of control | endpoint: mean survival time, dose: 50.0 mg/kg/injection, schedule: Q04DX003 (ip), vehicle: saline with Tween-80 107 % of control | [5] 110 % of control and 103 % of control and 107 % of control | [6] 105 % of control and 117 % of control | [7] 102 % of control

CCNC(C)(C)C(SS)c1ccc(C(F)(F)F)cc1 (centres undefined)
inactive: [5] 88 % of control | [6] 90 % of control | [7] 93 % of control

CC(=O)c1cc2c(cc1C(C)C)CC[C@H]1[C@](C)(C#N)CCC[C@]21C
inactive: endpoint: mean survival time, dose: 25.0 mg/kg/injection, schedule: Q01DX009 (ip), vehicle: saline with Tween-80 104 % of control | [10] 90 % of control | [2] 98 % of control | [5] 87 % of control

COc1ccc(CC(N)C(=O)OCc2ccccc2)cc1N(CCCl)CCCl (centres undefined)
inactive: endpoint: mean survival time, dose: 6.0 mg/kg/injection, schedule: Q01DX009 (ip), vehicle: saline 118 % of control
active: endpoint: mean survival time, dose: 3.0 mg/kg/injection, schedule: Q01DX009 (ip), vehicle: saline 177 % of control

CCCCCCCC(C)/C=N/NC(=O)c1ccc[n+](C)c1 (centres undefined)
inactive: [14] 103 % of control | [15] 101 % of control

O=S(=O)(O)c1ccc(-c2ccc(S(=O)(=O)O)cc2)cc1
inactive: endpoint: mean survival time, dose: 6.3 mg/kg/injection, schedule: Q01DX009 (ip), vehicle: saline 104 % of control | endpoint: mean survival time, dose: 6.3 mg/kg/injection, schedule: Q04DX003 (ip), vehicle: saline 102 % of control | endpoint: mean survival time, dose: 12.5 mg/kg/injection, schedule: Q01DX001 (ip), vehicle: saline 101 % of control | [11] 104 % of control | endpoint: mean survival time, dose: 12.5 mg/kg/injection, schedule: Q04DX003 (ip), vehicle: saline 100 % of control | endpoint: mean survival time, dose: 25.0 mg/kg/injection, schedule: Q01DX001 (ip), vehicle: saline 103 % of control | [12] 101 % of control | endpoint: mean survival time, dose: 25.0 mg/kg/injection, schedule: Q04DX003 (ip), vehicle: saline 100 % of control | endpoint: mean survival time, dose: 50.0 mg/kg/injection, schedule: Q01DX001 (ip), vehicle: saline 101 % of control | [13] 104 % of control | endpoint: mean survival time, dose: 50.0 mg/kg/injection, schedule: Q04DX003 (ip), vehicle: saline 93 % of control | endpoint: mean survival time, dose: 100.0 mg/kg/injection, schedule: Q01DX001 (ip), vehicle: saline 100 % of control and 108 % of control | [8] 106 % of control | [14] 103 % of control | endpoint: mean survival time, dose: 200.0 mg/kg/injection, schedule: Q01DX001 (ip), vehicle: saline 100 % of control and 105 % of control | [9] 98 % of control | [15] 100 % of control | endpoint: mean survival time, dose: 400.0 mg/kg/injection, schedule: Q01DX001 (ip), vehicle: saline 104 % of control and 107 % of control

CN(C)C1CC2C=CC1C1C=CC21 (centres undefined)
inactive: endpoint: mean survival time, dose: 6.25 mg/kg/injection, schedule: Q01DX009 (ip), vehicle: water 100 % of control | endpoint: mean survival time, dose: 12.5 mg/kg/injection, schedule: Q01DX009 (ip), vehicle: water 97 % of control | endpoint: mean survival time, dose: 25.0 mg/kg/injection, schedule: Q01DX009 (ip), vehicle: water 101 % of control | endpoint: mean survival time, dose: 50.0 mg/kg/injection, schedule: Q01DX009 (ip), vehicle: water 103 % of control

Cc1ccc(C(=O)OCCN2CCOCC2)c([N+](=O)[O-])c1OCc1ccccc1
inactive: [16] 94 % of control | [17] 103 % of control | [18] 91 % of control

O=C(O)C1C(C(=O)O)C(C(=O)O)C1C(=O)O (centres undefined)
inactive: [10] 109 % of control | [2] 95 % of control | [3] 108 % of control

CC1CCC(=O)C2(C)CC3OC(=O)C(C)C3C=C12 (centres undefined)
inactive: [5] 94 % of control | [6] 93 % of control | [7] 86 % of control

CCC1CN2C(=N1)c1ccccc1-c1cc(Cl)ccc12 (centres undefined)
inactive: endpoint: mean survival time, dose: 10.0 mg/kg/injection, schedule: Q04DX003 (ip), vehicle: Klucel (hydroxypropylcellulose) (HPC) 98 % of control | endpoint: mean survival time, dose: 20.0 mg/kg/injection, schedule: Q04DX003 (ip), vehicle: Klucel (hydroxypropylcellulose) (HPC) 103 % of control

CC1(C)C(C(=O)/C=C/c2ccccc2)C1[N+](=O)[O-] (centres undefined)
inactive: [16] 97 % of control | [17] 97 % of control | [18] 97 % of control

Reference: PubChem BioAssay AID256 (DTP/NCI, 2004)
